SMILES strings stand for the structures.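 A five-concentration, 48-hour dose response in 96-well plates underlies each endpoint, interpolated linearly between surrounding concentrations. GI50 is the concentration that inhibits growth by half. The concentration for full growth arrest is given as TGI.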

Common to all, as to assay: NCI tumour cell line growth inhibition, 48 h
For assay [1], the system named is NCI-H226 lung.
The test system of assay [2] is CAKI-1 renal.
For assay [3], the system named is SF-295 CNS.
For assay [4], the system named is CCRF-CEM leukemia.
Assay [5] deals with HS 578T breast.
In assay [6] the test system is PC-3 prostate.
Assay [7] relates to SN12C renal.
The test system of assay [8] is SK-MEL-28 melanoma.
Assay [9] has as its system 786-0 renal.
Assay [10] relates to SR leukemia.

Consider `CN1C(=O)C(O)CC1c1cccc(C(F)(F)F)c1` (stereo not given), for which the TGI in assay [1], in assay [2], in [3], in assay [4], in assay [5] and in [6] was over 100 µM throughout. For the same molecule, the TGI in assay [7], in [8] and in [9] was over 100 µM each time.

Regarding `Cc1nc(-c2cc3cc(Cl)ccc3oc2=O)cc2c1c(=O)oc1ccc(Cl)cc12`, the TGI in [10], in [1], in [3], in [4], in assay [5] and in assay [6] was over 100 µM each time. In addition, the TGI in [7], in assay [8] and in assay [9] was over 100 µM each time.

For the molecule `CCOC(=O)C1(C(F)(F)F)N=C(CC)OC(N2CCOCC2)=N1` (stereo not given), the TGI in [10], in assay [2], in assay [3], in assay [4], in assay [5] and in assay [6] was over 100 µM throughout. The TGI in [7] and in [8] was over 100 µM each time.

Regarding `C(/Cc1ccc2c(c1)OCO2)=N\NC1=NCCCN1`, the TGI is 70.2 µM in assay [10]; over 100 µM in [1]; over 100 µM in [3]; over 100 µM in assay [4]; over 100 µM in assay [5]; over 100 µM in assay [6]. Moreover, the TGI in [7], in assay [8] and in assay [9] was over 100 µM in each case.

Turning to `CN(C)C(=S)Oc1ccc2ccc(=O)oc2c1`, the TGI in assay [10], in assay [1], in assay [2], in assay [3], in assay [5] and in assay [6] was over 100 µM in each case. For the same molecule, the TGI in [7], in assay [8] and in assay [9] was over 100 µM each time.

With `CC(=O)Nc1cc(Nc2cc(=O)[nH]c(=O)[nH]2)ccc1C`, the TGI in assay [10], in assay [1], in assay [3], in assay [4], in assay [5] and in assay [6] was over 100 µM throughout. Moreover, the TGI in assay [7], in [8] and in assay [9] was over 100 µM each time.

Take `CC(=O)CC(=O)CCC(=O)O`: the TGI in assay [10], in [1], in [2], in assay [3], in [7] and in [8] was over 100 µM in each case.

In the case of `NCCC1CN(C(=O)OCc2ccccc2)c2ccccc21` (stereo not given), the TGI was 10.1 µM in [10]; 26.8 µM in assay [1]; over 50.7 µM in assay [2]; 40.3 µM in assay [3]; 56.8 µM in [5]; over 36.2 µM in assay [6]. For the same molecule, the results for the TGI in assay [7], in [8] and in assay [9] were 27.3 µM, 36 µM and 29.8 µM, respectively.

`COc1ccccc1CNCCCCCCCCCCCCN1C(=O)c2ccc3c4c(ccc(c24)C1=O)C(=O)N(CCCCCCCCCCCCNCc1ccccc1OC)C3=O`: the GI50 was over 50 µM in [1]; over 50 µM in assay [2]; 2.24 µM in assay [3]; over 5 µM in [6]; over 50 µM in assay [7]; over 50 µM in assay [8]. In addition, the TGI is over 50 µM in assay [1]; over 50 µM in assay [2]; over 50 µM in [3]; over 5 µM in assay [6]; over 50 µM in [7]; over 50 µM in assay [8].

Regarding `S=C(NCc1ccccc1)N/N=C/c1ccccn1`, the TGI in assay [10] is over 21 µM; in assay [1], 17.7 µM; in assay [2], over 96.6 µM; in [5], over 100 µM; in assay [6] it was over 100 µM; in assay [7] it was over 100 µM. Further, the TGI in assay [8] is over 100 µM; in assay [9] it was over 65.3 µM.

As for `CC(=O)/C(=C\c1ccc(Cl)c(Cl)c1)C(=O)C(C)CN(C)C` (stereo not given), the TGI in [10] amounted to 5.21 µM; in assay [1], 14.9 µM; in assay [2], 17.1 µM; in assay [3], 16.5 µM; in [4] it was 0.116 µM; in [6], 17 µM. For the same molecule, the TGI was determined as 20.6 µM in assay [7], 21 µM in assay [8] and 8.96 µM in assay [9].

Turning to `C#CCC1(C(=O)OCC)C(=O)c2ccccc2N(C)C1=O` (stereo not given), the TGI in [1], in assay [2], in assay [3], in assay [4], in [7] and in assay [8] was over 100 µM throughout.

For `CC1CC/C(=C\c2ccc(Cl)cc2)c2nc(N)c(C#N)c(-c3ccc(Cl)cc3)c21` (stereo not given), the TGI is over 100 µM in [10]; over 100 µM in assay [1]; 45.5 µM in [2]; over 100 µM in assay [3]; over 100 µM in assay [4]; over 100 µM in assay [6]. Moreover, the TGI in [7], in assay [8] and in assay [9] was over 100 µM in each case.

Take `C/C(Nc1ccc(Cl)cc1Cl)=C1/CCOC1=O`: the TGI in assay [10] was over 100 µM; in assay [1], over 100 µM; in [3], 54 µM; in assay [4], over 100 µM; in assay [5] it was 73.8 µM; in assay [6], over 100 µM. Besides, the TGI in [7], in assay [8] and in assay [9] was over 100 µM each time.

With `O=[N+]([O-])c1ccc(C(Nc2ccccc2)c2ccc3cccnc3c2O)cc1` (stereo not given), the TGI is over 27.7 µM in assay [1]; over 62.3 µM in [2]; over 100 µM in assay [3]; over 22.2 µM in [4]; over 71.7 µM in [5]; over 87.2 µM in [6]. For the same molecule, the TGI in [7] is over 56.2 µM; in [8], over 100 µM; in assay [9], 26.1 µM.

(Values after PubChem BioAssay (NCI).)
